{"source": "patent US9649378B2", "about": "“Cancer methods” (priority 2010, dated 2017)", "key": {"phospho-ERK [1]": {"test_system": "phospho-ERK", "experiment": "lapatinib-induced pERK attenuation after OPCML siRNA knockdown in OSE-C2 cells", "method": "(§4) (B) The effect of OPCML knockdown on the efficiency of lapatinib-induced pERK attenuation was analysed; densitometry of pERK signal (mean values of 3 independent experiments).\nEndogenous OPCML was knocked down in OSE-C2 cells by transient transfection of a specific pool of 3 siRNAs (Stealth knockdown-Invitrogen) using lipofectamine RNAiMAX reagent.\nWe then investigated whether siRNA knockdown of physiological OPCML expression in normal OSE-C2 cells could affect sensitivity to lapatinib."}, "phospho-ERK [2]": {"test_system": "phospho-ERK", "experiment": "EGF induced phospho-ERK activation in OPCML transfected (BKS2.1) and control (SKOBS-V1.2) cells", "method": "as §4\nOPCML transfected and control cells were pre-incubated with lapatinib, trastuzumab, cituximab, erlotinib and gefitinib."}, "[3]": {"test_system": "HER2 3+ recurrent disease (ovarian and breast cancer)", "experiment": "response to lapatinib in patients by RECIST criteria versus OPCML IHC", "format": "in vivo, human", "design": "key: SD = stable disease; PR = partial response; PD = progressive disease", "conditions": "individual cases 1-8, HER2 3+", "experimental": "We next tested whether OPCML could be used to predict response to lapatinib in ovarian and breast cancer. Histology was obtained by new biopsy of recurrent disease and TTP (time in months to progression from start of therapy until progression) assessed. Docetaxel and anthracyclines were administered for a maximum of 6 cycles and capecitabine was administered until disease progression or unacceptable toxicity. HER2 immunohistochemistry (IHC) was performed using the Dako Herceptest kit: 3+ in all cases."}, "OPCML [4]": {"test_system": "OPCML", "experiment": "induction of OPCML expression by growth factors in serum starved SK-OV-3 cells (qRT-PCR, Western)", "format": "cell-based", "conditions": "50 ng/ml EGF", "method": "Quantitative reverse-transcription PCR (qRT-PCR) analysis of gene expression was carried out on an Applied Biosystems 7900HT thermal cycler using SYBR green I technology. Premixed qPCR reagent, Platinum® Quantitative PCR SuperMix-UDG with ROX (Invitrogen, UK), was used for amplification. The expression of specific genes was normalized to the expression of the endogenous control gene HPRT1."}, "OPCML [5]": {"test_system": "OPCML", "experiment": "induction of OPCML expression by growth factors in a panel of ovarian cancer cell lines", "format": "cell-based", "conditions": "data not shown", "source_text": "OPCML is a non-transmembrane, external lipid leaflet GPI-anchored protein, and is frequently lost from cells by somatic inactivation of the gene."}, "FGFR1": {"test_system": "FGFR1", "sequence (P11362 22-376 limits assumed)": "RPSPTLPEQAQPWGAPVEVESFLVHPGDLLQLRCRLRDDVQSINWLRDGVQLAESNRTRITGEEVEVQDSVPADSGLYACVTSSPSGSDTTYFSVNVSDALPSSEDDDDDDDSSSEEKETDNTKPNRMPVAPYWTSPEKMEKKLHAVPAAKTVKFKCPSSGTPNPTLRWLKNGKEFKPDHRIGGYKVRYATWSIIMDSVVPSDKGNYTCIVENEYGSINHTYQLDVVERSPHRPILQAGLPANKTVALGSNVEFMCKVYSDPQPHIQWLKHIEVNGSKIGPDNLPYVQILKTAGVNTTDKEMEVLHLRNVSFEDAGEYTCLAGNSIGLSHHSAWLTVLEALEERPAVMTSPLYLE", "experiment": "GST-OPCML pull-down assay", "format": "binding", "conditions": "lysate of FGFR1 transfected cells or FGFR1 ECD protein", "experimental": "(§1) FIG. 2: OPCML interacts with the ECD of HER2 and FGFR1 but not EGFR. (A) (i): Co-IP was performed using protein extracts from SKOBS-V1.2, SKOBS-3.5 and BKS2.1 (SKOBS-3.5 and BKS2.1 express 3 and 20-fold more OPCML protein than normal physiological levels seen in OSE-C2). The goat polyclonal anti-OPCML (R & D Systems) was used in initial IP and products were detected on Western blots employing respective Abs for EGFR and HER2. The reciprocal IP with a monoclonal to ECD of HER2 (Calbiochem) is shown with successful immunoblotting for OPCML in the BKS2.1 stable line (expressing 20-fold more OPCML); (ii) Co-IP using the OPCML Ab in SKOBS-V1.2 and BKS2.1 lines were immunoblotted with anti-FGFR1αECD Ab. (B) A structural representation of GST-OPCML 1+2 and GST-OPCML 1+2+3 constructs with subsequent Western blot analysis of the fusion proteins. […] FGFR1 was also shown to bind GST-OPCML 1+2+3 and GST-OPCML 1+2 from the same pull-down with lysate from SK-OV-3 cells transiently transfected with FGFR1 cDNA.\n(§2) FIG. 17: OPCML directly interacts with EphA2, FGFR1 and HER2, but not EGFR. (A) Immuno-precipitation (IP) for OPCML showing positive immunoblots for EphA2, FGFR1 and HER2. […] (B) A schematic representation of GST-OPCML domain 1-3 construct. (C). […] The presence of OPCML fusion proteins in these assays was verified by immunoblotting (IB, bottom panel).\n(§3) Pull-down assays were performed using recombinant GST-OPCML fusion proteins bound to magnetic glutathione beads (Promega). Cell lysates prepared as for immunoprecipitation, proteins produced using TNT in vitro Rabbit reticulocyte lysate expression system (Promega) or expressed in bacteria were used analysed for interactions."}, "EGFR": {"molecular_target": "T1, EGFR (Homo sapiens, UniProt P00533)", "T1 construct": "pull-down experiments with either SK-OV-3 cell lysates (expressing HER2 and EGFR); endogenous in cells; host or cells: SK-OV-3", "experiment": "GST-OPCML pull-down assay", "format": "binding", "conditions": "SK-OV-3 cell lysate", "experimental": "as §1, §2, §3"}, "HER2": {"test_system": "HER2", "experiment": "GST-OPCML pull-down assay", "format": "binding", "conditions": "SK-OV-3 lysate or in vitro translated HER2ECD", "experimental": "as §1, §2, §3"}, "[6]": {"conditions": "OPCML transfected versus control cells, EGF induced phospho-ERK"}}, "note": "Where “and” joins values, the source holds several entries; their conditions need not be identical. Equal entries are not always repeated. Where two headings read alike, the source gives them in different places.", "data": [{"compound": "CS(=O)(=O)CCNCc1ccc(-c2ccc3ncnc(Nc4ccc(OCc5cccc(F)c5)c(Cl)c4)c3c2)o1.Cc1ccc(S(=O)(=O)O)cc1.Cc1ccc(S(=O)(=O)O)cc1.O", "note": "[lapatinib, N-(3 chloro-4-{[(3-fluorophenyl)methyl]oxy}phenyl)-6-[5-({[2(methylsulfonyl)ethyl]amino}methyl)-2-furanyl]-4-quinazolinamine bis (4 methylbenzenesulfonate) monohydrate]", "values": [{"measurement": "extent of inhibition of pERK signal", "setting": "phospho-ERK [1]; knockdown by siRNA to OPCML, P=0.0009", "result": 47, "unit": "%"}, {"measurement": "reduction of EGF-induced pERK signal", "setting": "phospho-ERK [1]; non-silencing (non-si) duplex, densitometry, mean of 3 experiments", "result": 70, "unit": "%"}, {"measurement": "increase in sensitivity: reduction of effective concentration required to abolish the phospho-ERK signal", "setting": "phospho-ERK [2]; BKS2.1 compared with SKOBS-V1.2, EGF 50 ng/ml, monohydrate", "result": "> 10 fold and 10 fold"}, {"measurement": "OPCML mediated sensitization", "setting": "phospho-ERK [2]; [6]", "result": "strong OPCML mediated sensitization"}, {"measurement": "Response to lapatinib", "setting": "[3]", "result": "SD (2×) and PD (2×) and PR (4×)"}]}, {"compound": "EGF: human recombinant epidermal growth factor (Promega)", "values": [{"measurement": "time of maximal OPCML mRNA expression", "setting": "OPCML [4]", "result": 30, "unit": "min"}, {"measurement": "ovarian cancer cell lines with rapid OPCML RNA and protein expression, of lines treated", "setting": "OPCML [5]", "result": "4/4"}]}, {"compound": "GST-OPCML D2+3: GST/OPCML domain fusion protein with domains 2 and 3", "values": [{"measurement": "interaction with FGFR1", "setting": "FGFR1", "result": "interacted with FGFR1"}]}, {"compound": "GST-OPCML D1+2+3: full length OPCML extracellular domain (Ig domains 1-3) fused to GST", "values": [{"measurement": "interaction with FGFR1", "setting": "FGFR1", "result": "interacted with FGFR1"}, {"measurement": "interaction with FGFR1", "setting": "FGFR1; listed as GST-OPCML 1+2+3", "result": "shown to bind"}, {"measurement": "interaction with FGFR1", "setting": "FGFR1; listed as GST-OPCML 1-3", "result": "specific binding"}, {"measurement": "interaction with FGFR1", "setting": "FGFR1; listed as GST-OPCML D1-3", "result": "interacting specifically"}, {"measurement": "binding of EGFR", "setting": "EGFR", "result": "no binding of EGFR"}, {"measurement": "interaction with HER2", "setting": "HER2", "result": "interacted"}, {"measurement": "interaction with HER2", "setting": "HER2; listed as GST-OPCML 1+2+3", "result": "binding of HER2"}, {"measurement": "interaction with HER2", "setting": "HER2; listed as GST-OPCML 1-3", "result": "specific binding"}, {"measurement": "interaction with HER2", "setting": "HER2; listed as GST-OPCML D1-3", "result": "interacting specifically"}]}, {"compound": "COc1cc2ncnc(Nc3ccc(F)c(Cl)c3)c2cc1OCCCN1CCOCC1", "note": "[gefitinib]", "values": [{"measurement": "OPCML mediated sensitization", "setting": "phospho-ERK [2]; [6]", "result": "no sensitization"}]}, {"compound": "GST-OPCML D1+2: truncated OPCML ECD lacking Ig domain 3 fused to GST", "values": [{"measurement": "interaction with FGFR1", "setting": "FGFR1", "result": "interacted with FGFR1"}, {"measurement": "interaction with FGFR1", "setting": "FGFR1; listed as GST-OPCML 1+2", "result": "shown to bind"}]}, {"compound": "C#Cc1cccc(Nc2ncnc3cc(OCCOC)c(OCCOC)cc23)c1", "note": "[erlotinib]", "values": [{"measurement": "OPCML mediated sensitization", "setting": "phospho-ERK [2]", "result": "no sensitization"}]}]}
